From patent US10670605B2, “Cysteine reactive probes and uses thereof” (The Scripps Research Institute, priority 2015, dated 2020)

Experiments:
Assay in all cases: Competitive isoTOP-ABPP in situ (fragment-treated cells)
Format in all cases: cell-based
[1] = target: T1, cysteines in MDA-MB-231 and Ramos cells (Homo sapiens, UniProt Q9UL40); settings: 200 μM, insitu
T1 sequence (Q9UL40 1-294): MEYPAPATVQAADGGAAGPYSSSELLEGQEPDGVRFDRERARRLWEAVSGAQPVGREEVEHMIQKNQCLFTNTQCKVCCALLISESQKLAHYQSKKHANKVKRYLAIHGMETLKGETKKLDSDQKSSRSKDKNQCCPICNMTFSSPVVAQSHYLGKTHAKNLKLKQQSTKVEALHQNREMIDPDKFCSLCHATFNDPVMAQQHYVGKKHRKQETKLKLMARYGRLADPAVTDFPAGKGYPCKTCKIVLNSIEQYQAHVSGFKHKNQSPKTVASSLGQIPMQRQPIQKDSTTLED
Experimental: (§1) Fragments 4 and 11 were screened at 100 μM in situ. […] Site-specific engagement of electrophilic fragments was assessed by blockade of IA-alkyne probe labeling. […] Ratios for unique peptide entries were calculated for each experiment; overlapping peptides with the same modified cysteine (e.g. different charge states, MudPIT chromatographic steps or tryptic termini) were grouped together and the median ratio was reported as the final ratio (R). The peptide ratios reported by CIMAGE were further filtered to ensure the removal or correction of low quality ratios in each individual dataset. […] R values were calculated and individual datasets were filtered as described above (R value calculation and processing).

[2] = target: T2, cysteines in MDA-MB-231 and Ramos cells (Homo sapiens, UniProt P05091)
T2 sequence (P05091 18-517): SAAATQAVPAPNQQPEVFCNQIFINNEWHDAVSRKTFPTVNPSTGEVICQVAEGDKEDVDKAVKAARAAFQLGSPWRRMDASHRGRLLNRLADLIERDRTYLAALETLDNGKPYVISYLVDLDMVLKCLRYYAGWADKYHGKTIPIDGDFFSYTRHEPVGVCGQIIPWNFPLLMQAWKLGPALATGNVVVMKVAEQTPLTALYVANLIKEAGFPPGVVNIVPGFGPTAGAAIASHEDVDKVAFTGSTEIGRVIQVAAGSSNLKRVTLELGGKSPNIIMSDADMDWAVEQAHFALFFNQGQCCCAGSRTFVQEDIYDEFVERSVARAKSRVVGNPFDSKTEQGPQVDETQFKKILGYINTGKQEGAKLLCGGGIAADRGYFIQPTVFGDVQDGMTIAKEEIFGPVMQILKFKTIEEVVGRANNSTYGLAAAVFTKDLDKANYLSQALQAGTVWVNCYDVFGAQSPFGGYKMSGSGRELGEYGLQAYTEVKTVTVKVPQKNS
Experimental: as §1

[3] = target: T3, cysteines in MDA-MB-231 and Ramos cells (Homo sapiens, UniProt Q9BTE3); settings: 200 μM, insitu
T3 sequence (Q9BTE3 1-642): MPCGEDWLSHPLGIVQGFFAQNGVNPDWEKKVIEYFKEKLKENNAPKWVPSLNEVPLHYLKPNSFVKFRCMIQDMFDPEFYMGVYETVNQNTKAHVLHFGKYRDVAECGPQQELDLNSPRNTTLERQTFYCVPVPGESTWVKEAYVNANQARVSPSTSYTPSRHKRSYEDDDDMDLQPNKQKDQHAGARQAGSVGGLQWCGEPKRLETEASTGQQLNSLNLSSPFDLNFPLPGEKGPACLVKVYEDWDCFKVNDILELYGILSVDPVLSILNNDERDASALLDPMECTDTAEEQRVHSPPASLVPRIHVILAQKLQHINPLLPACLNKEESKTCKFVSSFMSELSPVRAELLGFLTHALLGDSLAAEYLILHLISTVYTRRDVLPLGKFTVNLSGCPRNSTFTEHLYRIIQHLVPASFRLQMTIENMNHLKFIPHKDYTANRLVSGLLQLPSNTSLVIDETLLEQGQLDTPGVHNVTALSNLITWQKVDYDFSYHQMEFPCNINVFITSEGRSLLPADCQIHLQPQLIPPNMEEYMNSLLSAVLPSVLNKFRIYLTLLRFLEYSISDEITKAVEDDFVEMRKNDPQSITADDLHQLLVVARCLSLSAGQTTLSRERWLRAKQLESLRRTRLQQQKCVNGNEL
Experimental: as §1

[4] = target: T4, cysteines in MDA-MB-231 and Ramos cells (Homo sapiens, UniProt Q9NUI1); settings: for isoTOP-ABPP ratio Q9NUI1_C22: 200 μM, insitu, 231
T4 sequence (Q9NUI1 1-292): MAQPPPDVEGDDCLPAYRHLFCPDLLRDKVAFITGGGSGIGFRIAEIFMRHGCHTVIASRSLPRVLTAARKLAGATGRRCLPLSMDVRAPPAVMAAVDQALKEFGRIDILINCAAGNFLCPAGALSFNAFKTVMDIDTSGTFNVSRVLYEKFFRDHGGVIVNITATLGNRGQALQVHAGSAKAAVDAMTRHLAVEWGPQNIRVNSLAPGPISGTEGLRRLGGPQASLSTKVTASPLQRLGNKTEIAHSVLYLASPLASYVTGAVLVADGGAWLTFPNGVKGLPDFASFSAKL
Experimental: as §1

[5] = target: T5, cysteines in MDA-MB-231 and Ramos cells (Homo sapiens, UniProt Q02556); settings: 200 μM, insitu, ramos
T5 sequence (Q02556 1-426): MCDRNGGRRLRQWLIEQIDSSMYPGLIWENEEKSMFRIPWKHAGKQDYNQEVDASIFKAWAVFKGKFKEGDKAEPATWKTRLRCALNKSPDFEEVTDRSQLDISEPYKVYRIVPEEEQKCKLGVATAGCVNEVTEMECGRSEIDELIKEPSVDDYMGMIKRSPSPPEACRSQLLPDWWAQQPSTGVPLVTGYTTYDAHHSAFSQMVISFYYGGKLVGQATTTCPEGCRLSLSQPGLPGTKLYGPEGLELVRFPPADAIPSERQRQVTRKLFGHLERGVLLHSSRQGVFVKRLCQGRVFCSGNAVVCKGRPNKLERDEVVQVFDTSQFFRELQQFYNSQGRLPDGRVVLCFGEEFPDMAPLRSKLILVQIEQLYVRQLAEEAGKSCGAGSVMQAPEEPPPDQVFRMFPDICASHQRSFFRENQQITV
Experimental: as §1

CC(C)CCOCCNC(=O)CCl [compound 27]
isoTOP-ABPP ratio Q9UL40_C68 [1]; 231: 1.9

COc1ccc(C2CC(c3cccs3)=NN2C(=O)CCl)cc1 (stereo not drawn) [compound 4]
isoTOP-ABPP reactivity P05091_C319 ALDH2 ([2]; 100 μM in situ 231): 20.0

COc1ccccc1OCCNC(=O)CCl [compound 28]
isoTOP-ABPP ratio Q9BTE3_C325 [3]; 231: 1.0

CC1CCc2ccccc2N1C(=O)CCl (stereo not drawn) [compound 45]
isoTOP-ABPP ratio Q9BTE3_C325 [3]; 231: 20.0
isoTOP-ABPP ratio Q9NUI1_C22 [4]: 17.0
isoTOP-ABPP ratio P05091_C319 ([2]; 200 μM, insitu, 231): 20.0

Cc1ccc(C=C(C#N)C(=O)NCCN2CCOCC2)cc1 [compound 41]
isoTOP-ABPP ratio Q9BTE3_C325 [3]; 231: 0.6
isoTOP-ABPP ratio P05091_C319 ([2]; 200 μM, insitu, 231): 0.9

C=CC(=O)Nc1cc(F)c(N2CCN(C(=O)OC(C)(C)C)CC2)c(F)c1 [compound 38]
isoTOP-ABPP ratio Q9BTE3_C325 [3]; 231: 2.2

O=C(CCl)NC(=O)NC12CC3CC(CC(C3)C1)C2 [compound 12]
isoTOP-ABPP ratio, cysteine Q9UL40_C68 [1]; 231: 20.0
isoTOP-ABPP ratio, cysteine P05091_C319 ([2]; 200 μM, insitu, 231): 20.0

C=CC(=O)N(Cc1cccnc1)c1cc(C(F)(F)F)cc(C(F)(F)F)c1 [compound 31]
isoTOP-ABPP ratio, Q02556_C306 [5]: 2.0
isoTOP-ABPP ratio Q9BTE3_C325 [3]; 231: 1.9
isoTOP-ABPP ratio Q9BTE3_C325 ([3]; ramos): 3.5
isoTOP-ABPP ratio Q9NUI1_C22 [4]: 0.7

Cn1cc(S(=O)(=O)N2CCOCC2)cc1C(=O)NC(=O)CCl [compound 11]
isoTOP-ABPP ratio, cysteine Q9NUI1_C22 ([4]; 100 μM in situ 231): 2.1

O=C(CCl)NCCc1c[nH]c2ccccc12 [compound 13]
isoTOP-ABPP ratio, cysteine Q02556_C306 [5]: 1.5
isoTOP-ABPP ratio, cysteine Q9UL40_C68 ([1]; ramos): 20.0

O=C(CCl)N1CCN(CC(=O)N2CCOCC2)CC1 [compound 29]
isoTOP-ABPP ratio, Q02556_C306 [5]: 1.4
isoTOP-ABPP ratio Q9UL40_C68 ([1]; ramos): 2.4
isoTOP-ABPP ratio P05091_C319 ([2]; 200 μM, insitu, ramos): 10.5
